These results are taken from patent publication US7199127B2, “Purine nucleosides” (United States of America, Represented by the Secretary, …, priority 2002, dated 2007).

In one series the target is T1, rA1 adenosine receptor (Rattus norvegicus, UniProt P25099).
T1 construct: Striatal and forebrain tissues from Wistar rats were homogenized in ice-cold 50 mM Tris.HCl buffer; from tissue; host or cells: Wistar rat brain membranes (forebrain for A1 is my own knowledge)
T1 sequence (P25099 1-326): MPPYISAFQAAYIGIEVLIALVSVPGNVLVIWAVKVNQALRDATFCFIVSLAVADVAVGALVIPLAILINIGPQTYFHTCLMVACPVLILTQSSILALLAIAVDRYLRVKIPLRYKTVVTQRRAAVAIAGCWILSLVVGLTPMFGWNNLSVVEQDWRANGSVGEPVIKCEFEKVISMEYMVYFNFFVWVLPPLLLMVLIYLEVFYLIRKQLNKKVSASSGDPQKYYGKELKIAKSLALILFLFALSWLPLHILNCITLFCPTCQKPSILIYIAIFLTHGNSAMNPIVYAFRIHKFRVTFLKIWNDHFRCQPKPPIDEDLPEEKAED
The experiment in a line: Binding of [3H]PIA to A1 (rat). Particulars: Cheng-Prusoff.

Another series concerns the target T2, rA2a adenosine receptor (Rattus norvegicus, UniProt P30543).
T2 construct: Striatal and forebrain tissues from Wistar rats were homogenized in ice-cold 50 mM Tris.HCl buffer; from tissue; host or cells: Wistar rat brain membranes (striatum for A2a is my own knowledge)
The experiment in a line: Binding of [3H]CGS21680 to A2a (rat). Conditions: for % Displacement rA2a: 10 μM, [3H]CGS21680.

The next series addresses T3, hA3 adenosine receptor (Homo sapiens, UniProt P0DMS8).
T3 construct: expressed in transfected cells; host or cells: CHO cells (ATCC CCL-61)
T3 sequence (P0DMS8 1-318): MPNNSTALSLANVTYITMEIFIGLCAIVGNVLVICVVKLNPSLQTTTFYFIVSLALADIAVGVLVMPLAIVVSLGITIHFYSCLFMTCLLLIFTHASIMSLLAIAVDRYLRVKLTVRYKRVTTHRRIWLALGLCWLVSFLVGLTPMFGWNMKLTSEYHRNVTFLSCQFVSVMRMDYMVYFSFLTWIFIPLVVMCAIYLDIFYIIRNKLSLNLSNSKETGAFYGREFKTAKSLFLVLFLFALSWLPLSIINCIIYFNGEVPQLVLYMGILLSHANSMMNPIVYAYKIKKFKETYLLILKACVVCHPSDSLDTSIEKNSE
Description: [125I]AB-MECA binding to membranes of CHO cells that express the A3 receptor. Conditions: for Ki: [125I]AB-MECA, CHO cell membrane, Cheng-Prusoff.

In the next series the target is hA2a adenosine receptor (Homo sapiens, UniProt P29274). Description: Binding of [3H]CGS21680 to A2a (human). Conditions: for Ki: [3H]CGS21680, Cheng-Prusoff.
The target of a further series is T4, hA1 adenosine receptor (Homo sapiens, UniProt P30542).
T4 sequence (P30542 1-326): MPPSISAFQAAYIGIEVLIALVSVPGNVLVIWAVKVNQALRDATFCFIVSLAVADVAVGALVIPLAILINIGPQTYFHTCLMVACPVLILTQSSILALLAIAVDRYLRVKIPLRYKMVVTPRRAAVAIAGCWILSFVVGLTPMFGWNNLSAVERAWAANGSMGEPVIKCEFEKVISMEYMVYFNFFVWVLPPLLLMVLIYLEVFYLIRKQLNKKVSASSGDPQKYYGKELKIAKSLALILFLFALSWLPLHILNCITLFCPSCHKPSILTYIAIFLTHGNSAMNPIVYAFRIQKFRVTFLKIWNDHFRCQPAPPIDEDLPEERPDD
The experiment in a line: Binding of [3H]PIA to A1 (human). Particulars: Cheng-Prusoff.

Another series has as its system Sprague Dawley rats. The experiment in a line: Toxicity test in rats. In kind it is in vivo. Particulars: rats, 20, 10 and 1 mg/kg peritoneally, observed for 24 h. The method, then: (§1) Animal studies were carried out to test the toxicity of the compounds pared in the present invention.
(§2) 25±5 g ICR family mice (Joongang Study Animal) and 235±10 g specific pathogen free (SPF) Sprague Dawley rats (Joongang Study Animal) were divided into 3 groups.

Another series concerns ICR family mice. Description: Toxicity test in mice. It is filed as in vivo. Conditions: mice, 20, 10 and 1 mg/kg peritoneally, observed for 24 h. The protocol: as §1, §2
[1] abbreviates: [3H]CGS21680, Cheng-Prusoff, read-out: Ki rA2a.

Where two headings read alike, the source gives them in different places.

For orientation: melting point means the temperature of the solid-liquid transition. The term Ki denotes a dissociation constant, usually derived from enzyme kinetics or from competition with a known ligand.

T2 sequence (P30543 whole entry): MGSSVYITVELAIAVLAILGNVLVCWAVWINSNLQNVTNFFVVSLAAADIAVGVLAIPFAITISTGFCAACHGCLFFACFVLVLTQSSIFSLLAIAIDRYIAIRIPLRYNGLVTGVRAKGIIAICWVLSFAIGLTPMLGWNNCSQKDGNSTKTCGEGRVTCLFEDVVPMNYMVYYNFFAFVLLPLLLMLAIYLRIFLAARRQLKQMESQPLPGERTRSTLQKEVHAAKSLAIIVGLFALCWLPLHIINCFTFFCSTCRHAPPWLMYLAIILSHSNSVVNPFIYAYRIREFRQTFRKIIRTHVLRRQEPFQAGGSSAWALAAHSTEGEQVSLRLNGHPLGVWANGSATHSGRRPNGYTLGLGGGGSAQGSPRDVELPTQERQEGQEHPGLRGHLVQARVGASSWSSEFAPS
Chain of hA2a adenosine receptor (P29274 whole entry): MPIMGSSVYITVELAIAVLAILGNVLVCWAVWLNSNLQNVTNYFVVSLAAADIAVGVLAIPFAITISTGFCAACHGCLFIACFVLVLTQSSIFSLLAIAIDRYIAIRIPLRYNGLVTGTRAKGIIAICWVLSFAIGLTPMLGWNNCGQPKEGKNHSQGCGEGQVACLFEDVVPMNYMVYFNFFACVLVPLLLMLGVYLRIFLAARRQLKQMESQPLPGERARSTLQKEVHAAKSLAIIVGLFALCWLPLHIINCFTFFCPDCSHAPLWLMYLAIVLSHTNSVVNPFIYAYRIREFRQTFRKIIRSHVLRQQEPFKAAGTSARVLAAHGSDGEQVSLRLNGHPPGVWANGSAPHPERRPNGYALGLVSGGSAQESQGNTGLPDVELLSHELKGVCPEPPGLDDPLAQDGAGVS
Description for hA1 adenosine receptor: (§3) The binding of [^3H]PIA ((R)-N^6-(phenylisopropyl)adenosine) to A1 and the binding of [^3H]CGS21680(2-[[[4-(2–Carboxyethyl-phenyl)ethylamino]-5′-N-thylcarbamoyl)adenosine) to A2a were measured as described below. Adenosine deaminase was added while the membrane was cultured at 30° C. for 30 min with the radioactive ligand. The IC50 values of each compound were determined for at least 6 different concentrations.
Description for hA2a adenosine receptor: as §3
Description for hA3 adenosine receptor: Chinese hamster ovary (CHO, ATCC; US Cell Strain Bank No. CCL-61) cells that express the A3 receptor were cultured at 37° C. in the presence of 5% carbon dioxide in F-12 culture medium (Gibco Company, USA) containing 10% fetal bovine serum (FBS) and penicillin/streptomycin (100 U/mL and 100 μg/mL), and used.
The inhibitor is first dissolved in dimethyl sulfoxide and diluted with buffer solution. The final concentration of DMSO should not exceed 1%. After culturing at 37° C. for 1 h, it was quickly filtered using a cell collector (TOMTEC Company, USA) and a GF/B filter (Whatman Company, USA). The test tube was rinsed three times with 3 mL of buffer solution, and the radioactivity was measured using a γ-counter.
CHO (Chinese hamster ovary) cells expressing recombinant the human A3AR were cultured in DMEM supplemented with 10% fetal bovine serum, 100 units/mL penicillin, 100 μg/mL streptomycin, 2 μmol/mL glutamine and 800 μg/mL geneticin. The CHO cells expressing rat A3ARs were cultured in DMEM and F 12 (1:1). Cells were harvested by trypsinization. After homogenization and suspension, cells were centrifuged at 500 g for 10 min, and the pellet was re-suspended in 50 mM Tris HCl buffer (pH 8.0) containing 10 mM MgCl2, 1 mM EDTA and 0.1 mg/mL CHAPS. The suspension was homogenized with an electric homogenizer for 10 sec, and was then re-centrifuged at 20,000 g for 20 min at 4° C. The resultant pellets were resuspended in buffer in the presence of 3 Units/mL adenosine deaminase, and the suspension was stored at −80° C. until the binding experiments. Striatal and forebrain tissues from Wistar rats were homogenized in ice-cold 50 mM Tris.HCl buffer, pH 7.4, using an electric homogenizer. The homogenate was centrifuged at 20,000 g for 10 min at 4° C., and the pellet was washed in fresh buffer. The final pellet was stored at −80° C. until the binding experiments.
The mixtures were incubated at 37° C. for 60 min. Binding reactions were terminated by filtration through Whatman GF/B filters under reduced pressure using a MT-24 cell harvester (Brandell, Gaithersburgh, Md., USA). Filters were washed three times with 9 mL ice-cold buffer. Radioactivity was determined in a Beckman 5500γ-counter.
Description for rA1 adenosine receptor: as §3
(§4) Striatal and forebrain tissues from Wistar rats were homogenized in ice-cold 50 mM Tris.HCl buffer, pH 7.4, using an electric homogenizer. The homogenate was centrifuged at 20,000 g for 10 min at 4° C., and the pellet was washed in fresh buffer. The final pellet was stored at −80° C. until the binding experiments.
Description for rA2a adenosine receptor: as §3, §4

Take `CNC(=O)[C@]1(n2cnc3c(NCc4cccc(I)c4)nc(Cl)nc32)SC[C@H](O)[C@@H]1O` [Compound 12, (2R,3S,4R)-2-[2-chloro-6-(3-iodobenzylamino)purin-9-yl)-3,4-dihydroxytetrahydrothiophene-2-carboxylic acid methyl amide]: the melting point was in the range of 205 to 207 °C. On rA1 adenosine receptor, this compound yielded a Ki of 188 nM. Moreover, the “% Displacement rA2a” value on rA2a adenosine receptor was less than 10%.

`OC[C@H]1S[C@@H](n2cnc3c(NCc4cccc(I)c4)nc(Cl)nc32)[C@H](O)[C@@H]1O` [Compound 20, (2R,3R, 4S,5R)-2-[2-chloro-6-(3-iodobenzylamino)purin-9-yl]-5-hydroxymethyltetrahydrothiophene-3,4-diol] had a melting point of 112 to 114 °C. For the same compound, affinity on hA3 adenosine receptor was put at a Ki of 3.2 nM. The affinity on rA1 adenosine receptor corresponds to a Ki of 127 nM. On rA2a adenosine receptor (setting [1]), the Ki stood at 285 nM.

For the compound `CNc1nc(Cl)nc2c1ncn2[C@@H]1S[C@H](CO)[C@@H](O)[C@H]1O` [Compound 23, (2R,3R,4S,5R)-2-(2-chloro-6-methylaminopurin-9-yl)-5-hydroxymethyltetrahydrothiophene-3,4-diol], the inhibition constant (Ki) is 0.8 nM on hA3 adenosine receptor and 780 nM on rA1 adenosine receptor. Also, the “% Displacement rA2a” value on rA2a adenosine receptor was less than 10%.

As to `Nc1nc(Cl)nc2c1ncn2[C@@H]1S[C@H](CO)[C@@H](O)[C@H]1O` [Compound 25, (2R,3R,4S,5R)-2-(2-chloro-6-aminopurin-9-yl)-5-hydroxymethyltetrahygrothiophene-3,4-diol], the Ki at hA3 adenosine receptor was found to be 4.9 nM; at rA1 adenosine receptor, 238 nM; at rA2a adenosine receptor, 705 nM.

For the compound `CNC(=O)[C@H]1S[C@@H](n2cnc3c(N)nc(Cl)nc32)[C@H](O)[C@@H]1O` [Compound 29], the Ki at hA2a adenosine receptor was determined as 158 nM; at hA3 adenosine receptor, 0.4 nM; at rA1 adenosine receptor, 294 nM; on hA1 adenosine receptor, 89.2 nM. Also, the “% Displacement rA2a” value on rA2a adenosine receptor was less than 10%.

In the case of `CNC(=O)[C@H]1S[C@@H](n2cnc3c(NC)nc(Cl)nc32)[C@H](O)[C@@H]1O` [Compound 33, (2S,3S,4R,5R)-5-(2-chloro-6-methylaminopurin-9-yl)-3,4-dihydroxytetrahydrothiophene-2-carboxylic acid methyl amide], the “% Displacement hA2a” value at hA2a adenosine receptor (10 μM, [3H]CGS21680) came to 20%. The A3 agonist activity entry at hA3 adenosine receptor (in words, compared with known compounds) is “most strong and selective A3 agonist activity among the known compounds”. Further, the deaths result in the series on Sprague Dawley rats and with ICR family mice was “no deaths were observed” throughout. Further, the “symptoms (weight increase, feed intake) versus control group” value with Sprague Dawley rats and in the series on ICR family mice was “no other observable symptoms” in each case. The Ki worked out at 198 nM on rA1 adenosine receptor, 6340 nM on rA2a adenosine receptor (setting [1]) and 1330 nM on hA1 adenosine receptor.

For the compound `CNC(=O)[C@H]1S[C@@H](n2cnc3c(NCc4cccc(I)c4)nc(Cl)nc32)[C@H](O)[C@@H]1O` [Compound 36], the Ki worked out at 223 nM on hA2a adenosine receptor, 140 nM at rA1 adenosine receptor and 348 nM on rA2a adenosine receptor (setting [1]).
